From PMC3347530, “Atomic Resolution Crystal Structure of NAD^+-Dependent Formate Dehydrogenase from Bacterium Moraxella sp. C-1” (Acta Naturae, 2009) come the findings set out here.

Molecules are shown by their SMILES.

For this assay, the target named is T1, MorFDH (NAD+-dependent formate dehydrogenase from Moraxella sp. C-1) (Moraxella sp., UniProt O08375).
T1 construct: gene fdh; homodimer; 399 residues located, last two C-terminal residues not seen
T1 sequence (O08375 2-402): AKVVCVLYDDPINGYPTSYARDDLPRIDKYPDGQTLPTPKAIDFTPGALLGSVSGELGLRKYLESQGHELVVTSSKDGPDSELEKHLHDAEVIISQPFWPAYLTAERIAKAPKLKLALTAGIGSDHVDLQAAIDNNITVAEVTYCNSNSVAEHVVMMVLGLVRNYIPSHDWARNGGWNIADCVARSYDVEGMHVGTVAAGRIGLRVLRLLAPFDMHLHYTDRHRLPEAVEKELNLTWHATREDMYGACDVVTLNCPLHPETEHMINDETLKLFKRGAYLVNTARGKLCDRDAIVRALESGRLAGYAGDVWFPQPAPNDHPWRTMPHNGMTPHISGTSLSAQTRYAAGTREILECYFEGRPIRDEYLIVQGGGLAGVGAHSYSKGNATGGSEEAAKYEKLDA
The experiment in a line: X-ray crystal structure, […] A. The format is binding. The following applies: active site, co-crystallised with 5 mM NAD+ and 5 mM sodium azide, protein in pH 7.0 phosphate, reservoir pH 6.5, 20 C.

Regarding `NC(=O)c1ccc[n+]([C@@H]2O[C@H](COP(=O)(O)OP(=O)(O)OC[C@H]3O[C@@H](n4cnc5c(N)ncnc54)[C@H](O)[C@@H]3O)[C@@H](O)[C@H]2O)c1` [NAD+], the “X-ray crystal structure, 1.1 A” value (ternary complex with azide) was “The NAD ^+ molecule and one azide ion are bound in the active site of the enzyme”.
As to `[N-]=[N+]=[N-]` [azide ion], for the setting “ternary complex with NAD+, inhibitor, transition-state mimic”, the “X-ray crystal structure, 1.1 A” value is “The NAD ^+ molecule and one azide ion are bound in the active site of the enzyme”.
